pIC50: −log10 of the molar value. Values joined by “and” are separate entries in the source; they are usually repeats but may differ in a detail not shown here. Equal entries are not always repeated. Where two headings read alike, the source gives them in different places.
Key:
[1] = tested on: de novo sphingolipid biosynthesis; assay: de novo sphingosine biosynthesis from [14C]serine in hepatocytes
Procedure: Hepatocyte culture—Hepatocytes were prepared by a collagenase perfusion method, as known in the art as described in (22), from male Sprague-Dawley rats (125 to 200 g) fed a chow diet (Ralston Purina, St. Louis, Mo.) ad libitum. The hepatocytes were isolated using carefully aseptic procedures and plated in 60 mm tissue culture dishes coated with collagen for short term (<24 h) or with Matrigel for longer term (3 to 4 d) experiments. After plating for 4 h, the medium was changed to 2 ml of DMEM (with 3.7 g/L NaHCO3) containing 10 μg/ml f insulin, 6.1 g/L of penicillin, 10 g/L of streptomycin sulfate, and varying concentrations of fumonisins (added from a 1 mM solution in Delbecco's phosphate buffered saline). The cells were maintained in a tissue culture incubator at 37° C. and an atmosphere of 5% CO2; the medium was changed every 24 h.
Lipid analyses—The de novo biosynthesis of sphingosine was measured, as known in the art as described in (23,24). Briefly, cells that had been exposed to fumonisins for 0 to 4 d were changed to new medium containing 10 μCi of [^14C]serine (25 mCi/mmol) in 2 ml of serine-free DMEM (Gibco) in the presence or absence of fumonisin. After incubation for 2 or 16 h, they were scraped from the dishes, 25 μg of carrier sphingosine and sphinganine were added, and the lipids were extracted and acid hydrolyzed to liberate the free long-chain bases using conditions that give optimal hydrolysis with minimal decomposition of the labile long-chain bases, as known in the art as described in (23-25). The sphinganine and sphingosine were separated by thin-layer chromatography on silica gel H (Brinkman) plates developed with CHCl,:methanol:2 N NH4OH (40:10:1, v/v/v) and the radiolabelling profile (shown in FIG. 2) was determined by radiometric scanning of the plates with a Bioscan System 200 Imaging Scanner. […] The appropriate regions of the chromatoplate were scraped, placed in scintillation vials, and 0.2 ml of water and 4 ml of a detergent based scintillation cocktail were added. After several hours, the samples were counted with the appropriate corrections for quenching.

[2] = tested on: rat hepatocytes; assay: hepatocyte viability (trypan blue exclusion); format: cell-based; conditions: 1 μM, 4 d
[3] = tested on: serine palmitoyltransferase; assay: serine palmitoyltransferase in disrupted cells after treatment of hepatocytes; format: cell-based, rat; conditions: hepatocytes treated with 2.5 μM
[4] = tested on: ceramide synthase; assay: in vitro assay of ceramide synthase, rat liver microsomes; format: biochemical; conditions: inhibition may be biphasic (FIG. 5), read-out: apparent IC50 for inhibition of ceramide synthase in vitro
Procedure: In vitro assays of serine palmitoyltransferase and ceramide synthase. A microsomal fraction was isolated from rat liver and assayed for serine palmitoyltransferase, as is known in the art as described in (24,29), and ceramide synthase, as is known in the art as described in (30), in the presence of varying concentrations of fumonisin B1. […] The reaction was initiated by adding palmitoyl-CoA and, after incubation at 37° C. for 15 min, the products were extracted, resolved by TLC, and quantitated as described above. Background counts were subtracted using data from identical assays that omitted palmitoyl-CoA.

[5] = tested on: ceramide synthase; assay: conversion of [3H]sphingosine to [3H]ceramide by intact hepatocytes; format: cell-based, rat; conditions: 1 μM for 1 h before [3H]sphingosine (FIG. 4D)
Procedure: To measure the relative activity of ceramide synthase in intact hepatocytes, the cells were incubated with 1 μM fumonisin B1 for 1 h, then 1 μCi of [^3H]sphingosine was added and the cells were incubated for varying times. The [^3H]sphingosine was freshly purified because it decomposes rapidly to a material with an Rf similar to that of ceramides on TLC. The [^3H]sphingosine was diluted to 1 Ci/mmol and applied to a small silica gel column (Unisil, Clarkston, Ill.) in chloroform. The column was washed with 10-column volumes of chloroform, the [^3H]sphingosine was eluted with methanol and the purity confirmed by TLC. The [^3H]sphingosine was transferred to a small test tube, the solvent was evaporated under N2, a small volume of culture medium was added immediately, and the tube was sonicated for a few minutes using a bath-type sonicator. Aliquots of this solution were added to the cells, and at the end or the specified incubation period the cells were scraped from the dish, 25 μg of unlabelled ceramide carrier was added, and the lipids were extracted as described above. The [^3H]ceramides were separated from [^3H]sphingosine using silica gel H TLC plates developed with diethyl ether:methanol (99:1, v/v), visualized with I2 vapor, and the amount of radiolabel was determined by scintillation counting.

[6] = tested on: de novo sphingolipid biosynthesis; assay: [14C]sphingosine biosynthesis by hepatocytes isolated from rats given fumonisin B1 by gavage; format: in vivo, rat; conditions: 5 mg/200 g body weight by gavage for 2 days
[7] = tested on: serum sphingolipids; assay: free long-chain bases in sera of ponies fed fumonisin-contaminated feed; format: in vivo, pony; conditions: for serum sphinganine / serum sphingosine: pony 341, 22 ppm
Procedure: Materials—Corn screenings were ground in a Romer Mill (Romer Labs, Chesterfield, Mo.) and mixed thoroughly. Samples were taken from each lot and analyzed for fumonisins by high-performance liquid chromatography (HPLC) and thin-layer chromatography as is known in the art as previously described in (15). […] Using the mean fumonisin B1 level, individual rations were prepared daily by adding the corn screenings to pellets (NADC Horse Ration, Code 560, Purina Mills, St. Louis, Mo.) and molasses (Promolas Easy Mixer supreme, Pacific Molasses Co., San Francisco, Calif.) to yield the fumonisin concentrations cited in the text. In general, the ration contained 60% pellets, 10% molasses, and 30% corn screenings. The control diet consisted of pellets plus molasses.
Feeding protocols—Clinically normal ponies of varying age and sex were conditioned on the control diet for 21 days prior to the trial. Horse 341 was a 6 year old gelding (173-193 Kg), 299 was a 12 year old mare (205-215 Kg), 164 was a 12 year old mare (206-290 Kg) and 166 was a 16 year old mare (143-164 Kg). During the conditioning period and throughout the trial, all ponies received alfalfa hay by free choice. The test groups were fed varying levels of fumonisin (15 to 44 ppm) for varying lengths of time.
Analysis of serum long-chain bases—Blood was drawn approximately twice a week, centrifuged to obtain serum, and aliquots were frozen for analyses of free sphingosine and sphinganine by HPLC as is known in the art as described in (28). To quantitate total sphingolipids in some samples, the extracts were acid hydrolyzed before preparing the samples for HPLC.

[8] = reference 12; cited from earlier work
[9] = reference 13; cited from earlier work
[10] = reference 14; cited from earlier work
[11] = pony #212, initially 44 ppm, by 7 days

SMILES: CCCC[C@@H](C)[C@@H](OC(=O)C[C@@H](CC(=O)O)C(=O)O)[C@H](C[C@@H](C)C[C@H](O)CCCC[C@@H](O)C[C@H](O)[C@H](C)N)OC(=O)C[C@@H](CC(=O)O)C(=O)O [fumonisin B1]
- inhibition of [14C]sphingosine formation by hepatocytes ([1]; 1 μM): almost complete inhibition
- de novo sphingolipid biosynthesis ([1]; 10 μM): completely blocked
- amount of radiolabel in [14C]sphinganine ([1]; hepatocytes treated (FIG. 4A)): increased
- pIC50 ([1]; read-out: IC50 for inhibition of [14C]serine incorporation into [14C]sphingosine, rat hepatocytes, 2 h incubation (FIG. 3B)): ~7.00 and 7.00
- number of viable cells [2]: no decrease
- inhibition of serine palmitoyltransferase in disrupted cells [3]: no inhibition
- serine palmitoyltransferase activity in disrupted cells [3]: 7.7±0.2 pmol/min per mg of cellular protein
- pIC50 [4]: ~7.00
- [3H]sphingosine conversion to ceramides [5]: Inhibition
- ratio of free [14C]sphingosine to [14C]sphinganine [6]: 0.5±0.1
- Ratio Sa/So ([7]; Pony #164, feed 44 ppm, day 2): 0.60
- Sphinganine, free, serum ([7]; Pony #164, feed 44 ppm, day 2): 70.2 ± 4.2 pmol/mL
- Sphingosine, free, serum ([7]; Pony #164, feed 44 ppm, day 2): 117 ± 7 pmol/mL
- Ratio Sa/So ([7]; Pony #164, feed 44 ppm, day 7): 1.67
- Sphinganine, free, serum ([7]; Pony #164, feed 44 ppm, day 7): 253 ± 22 pmol/mL
- Sphingosine, free, serum ([7]; Pony #164, feed 44 ppm, day 7): 152 ± 13 pmol/mL
- Ratio Sa/So ([7]; Pony #164, feed 44 ppm, day 10): 1.25
- Sphinganine, free, serum ([7]; Pony #164, feed 44 ppm, day 10): 283 ± 18 pmol/mL
- Sphingosine, free, serum ([7]; Pony #164, feed 44 ppm, day 10): 226 ± 20 pmol/mL
- Ratio Sa/So ([7]; Pony #166, feed 44 ppm, day 2): 0.87
- Sphinganine, free, serum ([7]; Pony #166, feed 44 ppm, day 2): 37.2 ± 0.2 pmol/mL
- Sphingosine, free, serum ([7]; Pony #166, feed 44 ppm, day 2): 43 ± 6 pmol/mL
- Ratio Sa/So ([7]; Pony #166, feed 44 ppm, day 7): 0.95
- Sphinganine, free, serum ([7]; Pony #166, feed 44 ppm, day 7): 62 ± 8 pmol/mL
- Sphingosine, free, serum ([7]; Pony #166, feed 44 ppm, day 7): 66 ± 16 pmol/mL
- Ratio Sa/So ([7]; Pony #166, feed 44 ppm, day 10): 1.92
- Sphinganine, free, serum ([7]; Pony #166, feed 44 ppm, day 10): 179 ± 8 pmol/mL
- Sphingosine, free, serum ([7]; Pony #166, feed 44 ppm, day 10): 92 ± 4 pmol/mL
- Ratio Sa/So ([7]; Pony #166, feed 44 ppm, day 13): 1.72
- Sphinganine, free, serum ([7]; Pony #166, feed 44 ppm, day 13): 174 ± 18 pmol/mL
- Sphingosine, free, serum ([7]; Pony #166, feed 44 ppm, day 13): 100 ± 8 pmol/mL
- increase in serum sphinganine versus level immediately prior to feeding ([7]; pony 164, 44 ppm, day 2): 6 fold
- ratio of sphinganine to sphingosine versus pre-feeding ([7]; pony 164, 44 ppm, day 2): doubled
- increase in serum sphinganine versus initial level ([7]; pony 164, 44 ppm, day 7): 22 fold
- serum sphingosine versus initial level ([7]; pony 164, 44 ppm, day 7): 3.6 fold
- increase in serum sphinganine ([7]; pony 166, 44 ppm, day 2): 2.7 fold
- elevation in serum sphinganine ([7]; pony 166, 44 ppm, day 10): 13 fold
- elevation in serum sphingosine ([7]; pony 166, 44 ppm, day 10): 2 fold
- serum sphinganine ([7]; day 231): 256 pmol/mL
- serum sphingosine ([7]; day 231): 163 pmol/mL
- serum sphinganine ([7]; day 235): 532 pmol/mL
- serum sphingosine ([7]; day 235): 418 pmol/mL
- sphinganine to sphingosine ratio ([7]; pony 341, reintroduction of 22 ppm on day 182): > 1.5
- further increase of serum sphingosine versus day 2 [7, 11]: 2 fold
- serum sphinganine versus level at day 2 [7, 11]: 6.7 fold
- sphinganine exceeding level of sphingosine [7, 11]: 1.9 fold
- serum sphingosine level ([7]; pony #212, initially 44 ppm, within 2 days): 147 ± 5 pmol
- ratio of sphinganine to sphingosine ([7]; pony #341, 15 ppm, first 130 days): fairly consistent elevation over the initial value
- disease caused [8]: equine leucoencephalomalacia
- disease caused [9]: porcine pulmonary edema
- tumor promotion [10]: promotion of liver tumors
